The text below walks through data of patent US8329706B2, “Oxazolidinone derivatives” (Actelion Pharmaceuticals Ltd., priority 2009, dated 2012).

Assay [1] relates to rat. The following applies: cited from earlier work.
Assay [2] relates to rat. The following applies: rat model; cited from earlier work.
Assay [3] has as its system rat. The following applies: cited from earlier work. The source holds these as a separate data set.
The target of another assay is T1, human orexin-1 receptor (Homo sapiens, UniProt O43613).
T1 construct: expressed in transfected cells; host or cells: CHO cells (G418 selection)
T1 sequence (O43613 1-425): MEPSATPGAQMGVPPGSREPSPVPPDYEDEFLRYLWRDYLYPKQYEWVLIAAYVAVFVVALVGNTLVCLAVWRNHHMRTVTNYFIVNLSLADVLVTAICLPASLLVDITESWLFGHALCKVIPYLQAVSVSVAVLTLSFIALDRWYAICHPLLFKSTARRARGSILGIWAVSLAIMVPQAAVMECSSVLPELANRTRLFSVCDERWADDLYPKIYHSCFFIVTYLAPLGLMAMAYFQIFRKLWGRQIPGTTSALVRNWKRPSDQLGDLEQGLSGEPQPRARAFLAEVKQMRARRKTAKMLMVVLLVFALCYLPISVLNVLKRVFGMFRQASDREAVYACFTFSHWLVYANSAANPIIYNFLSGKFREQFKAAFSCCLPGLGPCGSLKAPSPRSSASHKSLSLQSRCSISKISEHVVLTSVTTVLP
The experiment in a line: FLIPR intracellular calcium assay, orexin receptor antagonistic activity (OX1). The class given is cell-based. The following applies: CHO cells expressing human orexin-1 receptor; agonist 3 nM orexin-A; normalized to on-plate reference; * geomean n = 5, *2 geomean n = 2. In outline: (§1)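 CHO cells expressing human OX1 or OX2 receptor loaded with fluo-4 AM, then antagonist preincubated 10 min before 3 nM orexin-A. FLIPR peak calcium fluorescence compared with agonist-plus-vehicle response. IC50 normalized to an on-plate reference compound.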
On the technique in general: Calcium flux is commonly read through the fluorescence of an indicator in the cells.

The next assay concerns the target T2, human orexin-2 receptor (Homo sapiens, UniProt O43614).
T2 construct: expressed in transfected cells; host or cells: CHO cells (G418 selection)
T2 sequence (O43614 1-444): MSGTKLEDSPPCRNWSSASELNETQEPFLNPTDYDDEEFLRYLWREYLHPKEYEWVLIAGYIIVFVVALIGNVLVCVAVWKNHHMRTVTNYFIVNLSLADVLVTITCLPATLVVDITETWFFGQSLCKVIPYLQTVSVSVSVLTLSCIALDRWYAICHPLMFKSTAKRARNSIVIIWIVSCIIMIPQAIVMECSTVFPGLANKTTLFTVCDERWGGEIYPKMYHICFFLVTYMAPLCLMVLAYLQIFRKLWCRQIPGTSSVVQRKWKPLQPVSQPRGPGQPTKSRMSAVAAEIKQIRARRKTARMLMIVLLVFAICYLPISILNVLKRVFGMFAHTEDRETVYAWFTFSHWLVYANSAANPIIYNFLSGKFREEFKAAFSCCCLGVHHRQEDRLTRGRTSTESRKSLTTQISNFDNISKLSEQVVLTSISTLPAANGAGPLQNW
The assay is described as follows: FLIPR intracellular calcium assay, orexin receptor antagonistic activity (OX2). The following applies: CHO cells expressing human orexin-2 receptor; agonist 3 nM orexin-A; normalized to on-plate reference; * geomean n = 5, *2 geomean n = 2. The format is cell-based. In outline:
as §1

Molecules are shown by their SMILES.

On to `CNC(=O)[C@@H](c1ccccc1)N1CCc2cc(OC)c(OC)cc2[C@@H]1CCc1ccc(C(F)(F)F)cc1` [(2R)-2-{(1S)-6,7-dimethoxy-1-[2-(4-trifluoromethyl-phenyl)-ethyl]-3,4-dihydro-1H-isoquinolin-2-yl}-N-methyl-2-phenyl-acetamide], for which, in the assay with rat [1], the “activity in model of post-traumatic stress disorder” value is “active”. For the same molecule, the memory function result in the assay with rat [2] is listed as “enhance memory function”. Also, in the assay on rat [3], the “alertness (active wake and locomotion)” value is “decrease alertness”; the “time spent in REM and NREM sleep” value was “dose-dependently increase the time spent in both REM and NREM sleep”.
The IC50 is the concentration that gives 50% inhibition. On to `COc1cccc(OC)c1C1OC(C)(C)C(=O)N1Cc1ccc(Oc2ccccn2)cc1` (centres unmarked) [Example 91, 2-(2,6-Dimethoxy-phenyl)-5,5-dimethyl-3-[4-(pyridin-2-yloxy)-benzyl]-oxazolidin-4-one], for which the IC50 at human orexin-1 receptor was 0.11 µM; at human orexin-2 receptor, 0.443 µM.
Take `COc1cccc(OC)c1C1OC(C)(C)C(=O)N1Cc1ccc(Oc2cnccn2)cc1` (centres unmarked) [Example 92, 2-(2,6-Dimethoxy-phenyl)-5,5-dimethyl-3-[4-(pyrazin-2-yloxy)-benzyl]-oxazolidin-4-one]: the IC50 was 1.21 µM on human orexin-1 receptor and 3.06 µM at human orexin-2 receptor.
Turning to `COc1cccc(OC)c1C1OC(C)(C)C(=O)N1Cc1ccc(Oc2ccc(C)nn2)cc1` (centres unmarked) [Example 93, 2-(2,6-Dimethoxy-phenyl)-5,5-dimethyl-3-[4-(6-methyl-pyridazin-3-yloxy)-benzyl]-oxazolidin-4-one], the IC50 at human orexin-1 receptor amounted to 1.2 µM; at human orexin-2 receptor, 8.33 µM.
`COc1cccc(OC)c1C1OC(C)(C)C(=O)N1Cc1ccc(Oc2ncccn2)cc1` (centres unmarked) [Example 95, 2-(2,6-Dimethoxy-phenyl)-5,5-dimethyl-3-[4-(pyrimidin-2-yloxy)-benzyl]-oxazolidin-4-one]: the IC50 is 2.99 µM at human orexin-1 receptor and 7.26 µM at human orexin-2 receptor.
As to `COc1cccc(OC(C)C)c1C1OC(C)(C)C(=O)N1Cc1ccc(Oc2ccccc2)cc1` (centres unmarked) [Example 96, 2-(2-Isopropoxy-6-methoxy-phenyl)-5,5-dimethyl-3-(4-phenoxy-benzyl)-oxazolidin-4-one], the IC50 at human orexin-1 receptor amounted to 0.01 µM; on human orexin-2 receptor it was 0.12 µM.
As to `CCOc1cccc(OC)c1C1OC(C)(C)C(=O)N1Cc1ccc(Oc2ccccc2)cc1` (centres unmarked) [Example 97, 2-(2-Ethoxy-6-methoxy-phenyl)-5,5-dimethyl-3-(4-phenoxy-benzyl)-oxazolidin-4-one], the IC50 was 0.025 µM at human orexin-1 receptor and 0.062 µM at human orexin-2 receptor.
Take `COCCOc1cccc(OC)c1C1OC(C)(C)C(=O)N1Cc1ccc(Oc2ccccc2)cc1` (centres unmarked) [Example 98, 2-[2-Methoxy-6-(2-methoxy-ethoxy)-phenyl]-5,5-dimethyl-3-(4-phenoxy-benzyl)-oxazolidin-4-one]: the half-maximal inhibitory concentration (IC50) on human orexin-1 receptor amounted to 0.345 µM; on human orexin-2 receptor, 0.366 µM.
Regarding `COc1cccc(OCCCO)c1C1OC(C)(C)C(=O)N1Cc1ccc(Oc2ccccc2)cc1` (centres unmarked) [Example 99, 2-[2-(3-Hydroxy-propoxy)-6-methoxy-phenyl]-5,5-dimethyl-3-(4-phenoxy-benzyl)-oxazolidin-4-one], the IC50 was found to be 0.08 µM at human orexin-1 receptor and 0.15 µM on human orexin-2 receptor.
